Among the test systems are OVCAR-5 ovarian; EKVX NSCLC; SF-268 CNS; HCT-116 colon; UACC-257 melanoma; SNB-75 CNS; HOP-92 NSCLC; SK-MEL-2 melanoma; SK-OV-3 ovarian; T-47D breast.
Holding throughout (assay): NCI-60 cell line screen, 48 h

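Test compounds were applied to cells in 96-well plates for 48 hours at 5 doses. The concentration for full growth arrest is given as TGI.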

Among the data in PubChem BioAssay (NCI) are TGI values, retold here.

Take `O=CN1CCC23CC(O)CCC2C1Cc1cc(Oc2nnnn2-c2ccccc2)cc(O)c13` (stereo not given): the TGI in the assay on OVCAR-5 ovarian, in the assay on EKVX NSCLC, with SF-268 CNS, in the assay on HCT-116 colon, in the assay with UACC-257 melanoma and with SNB-75 CNS was more than 100 µM each time. In addition, the TGI with HOP-92 NSCLC, with SK-MEL-2 melanoma, in the assay on SK-OV-3 ovarian and in the assay on T-47D breast was more than 100 µM each time.
Regarding `COc1ccc2c(c1)CCCc1c-2nc2ccccc2c1N`, the TGI with OVCAR-5 ovarian was 23.9 µM; with EKVX NSCLC, 22.2 µM; in the assay with SF-268 CNS it was 29.2 µM; in the assay on HCT-116 colon, 18.6 µM; with UACC-257 melanoma it was 9.56 µM; in the assay on SNB-75 CNS it was 22.6 µM. For the same compound, the TGI with HOP-92 NSCLC amounted to 18.9 µM; with SK-MEL-2 melanoma it was 29.1 µM; with SK-OV-3 ovarian, 24.2 µM; with T-47D breast, 31.3 µM.
Take `CCOC(=O)C12CC(C)=C(C)CC1CCCc1ccccc12` (stereo not given): the TGI in the assay with OVCAR-5 ovarian is 50.9 µM; with EKVX NSCLC, 49.5 µM; with SF-268 CNS it was more than 100 µM; in the assay with HCT-116 colon, 34.3 µM; in the assay on UACC-257 melanoma it was 46.2 µM; in the assay on SNB-75 CNS, 71.1 µM. The TGI with HOP-92 NSCLC was 38.8 µM; in the assay on SK-MEL-2 melanoma, 31.6 µM; in the assay on SK-OV-3 ovarian, more than 100 µM; in the assay on T-47D breast it was 55.5 µM.
Consider `CCCC[C@H]1C(=O)O[C@H](C)[C@H](NC(=O)c2cccc(NC=O)c2OC)C(=O)O[C@@H](C)[C@@H]1OC(=O)CC(C)C` (tested in a mixture with another compound), for which the TGI was determined as 51.6 µM in the assay on OVCAR-5 ovarian; 31.3 µM with EKVX NSCLC; 38.5 µM in the assay with SF-268 CNS; 28.4 µM with HCT-116 colon; 38.6 µM in the assay on UACC-257 melanoma; 17.9 µM in the assay with SNB-75 CNS. Also, the TGI in the assay with HOP-92 NSCLC was determined as 27.2 µM; in the assay on SK-MEL-2 melanoma, 29 µM; with SK-OV-3 ovarian, 30.1 µM; with T-47D breast it was 44.5 µM.
With `Cn1c2cn[nH]c(=O)c2c2ccc3ccccc3c21`, the TGI in the assay on OVCAR-5 ovarian was more than 100 µM; in the assay with EKVX NSCLC, 75.3 µM; in the assay with SF-268 CNS, 97.2 µM; with HCT-116 colon, more than 100 µM; in the assay with UACC-257 melanoma, more than 100 µM; in the assay with SNB-75 CNS, 38.3 µM. Moreover, the TGI is 60.8 µM in the assay with HOP-92 NSCLC, 46.7 µM with SK-MEL-2 melanoma, more than 100 µM in the assay on SK-OV-3 ovarian and more than 100 µM in the assay on T-47D breast.
For the compound `COC(=O)c1ccc2c(c1)sc1nc(-c3ccc(OC)cc3)cn12`, the TGI with OVCAR-5 ovarian, in the assay with EKVX NSCLC, in the assay with SF-268 CNS, in the assay on HCT-116 colon, in the assay on UACC-257 melanoma and in the assay on SNB-75 CNS was more than 100 µM throughout. Moreover, the TGI in the assay on HOP-92 NSCLC, with SK-MEL-2 melanoma, in the assay with SK-OV-3 ovarian and with T-47D breast was more than 100 µM throughout.
`O=S(=O)(O)c1ccc2c(N=Nc3ccccc3)c(O)ccc2c1`: the TGI in the assay with OVCAR-5 ovarian, in the assay with EKVX NSCLC, in the assay on SF-268 CNS, in the assay with HCT-116 colon, with UACC-257 melanoma and with SNB-75 CNS was more than 100 µM in each case. Further, the TGI in the assay with HOP-92 NSCLC, in the assay with SK-MEL-2 melanoma, in the assay on SK-OV-3 ovarian and with T-47D breast was more than 100 µM throughout.
For the compound `Cc1cc2c(cc1Cl)SC(c1ccccc1O)NS2(=O)=O` (stereo not given), the TGI in the assay with OVCAR-5 ovarian, with EKVX NSCLC, in the assay with SF-268 CNS, in the assay with HCT-116 colon, in the assay with UACC-257 melanoma and in the assay on SNB-75 CNS was more than 100 µM in each case. The TGI in the assay with HOP-92 NSCLC is more than 100 µM; with SK-MEL-2 melanoma, more than 100 µM; in the assay on SK-OV-3 ovarian, more than 100 µM; in the assay on T-47D breast it was 55.1 µM.
For `O=C(O)CCCN=C(C1=C(O)C(=O)N(c2ccccc2)C1=O)c1ccccc1`, the TGI in the assay on OVCAR-5 ovarian, with EKVX NSCLC, with SF-268 CNS, with HCT-116 colon, with UACC-257 melanoma and in the assay with SNB-75 CNS was more than 100 µM each time. Moreover, the TGI in the assay on HOP-92 NSCLC, in the assay with SK-MEL-2 melanoma, in the assay on SK-OV-3 ovarian and with T-47D breast was more than 100 µM each time.
As to `N=C(N)c1ccc(N=Nc2c(O)ccc3cc4c(N=Nc5ccc(C(=N)N)cc5)c(O)ccc4cc23)cc1`, the TGI in the assay on OVCAR-5 ovarian, with EKVX NSCLC, in the assay on SF-268 CNS, in the assay on HCT-116 colon, in the assay on UACC-257 melanoma and in the assay with SNB-75 CNS was more than 100 µM throughout. For the same compound, the TGI in the assay on HOP-92 NSCLC, with SK-MEL-2 melanoma, in the assay on SK-OV-3 ovarian and in the assay with T-47D breast was more than 100 µM in each case.
On to `Cc1cc(=O)n2c3c(c4c(cc13)c(CN(C)C)cc(=O)n4C)OC2`, for which the TGI was more than 77 µM with OVCAR-5 ovarian; more than 58.2 µM in the assay with EKVX NSCLC; 55.7 µM in the assay on SF-268 CNS; more than 69.5 µM in the assay with HCT-116 colon; more than 70.5 µM with UACC-257 melanoma; 58.6 µM in the assay with SNB-75 CNS. Further, the TGI is 97.6 µM with HOP-92 NSCLC, 41.6 µM in the assay on SK-MEL-2 melanoma, more than 94.7 µM with SK-OV-3 ovarian and more than 100 µM in the assay on T-47D breast.
Consider `Cn1cc(-c2nnc(-c3ccc(Cl)cc3)[nH]c2=O)c2ccccc21`, for which the TGI was more than 100 µM with OVCAR-5 ovarian; more than 64.9 µM in the assay on EKVX NSCLC; more than 100 µM in the assay with SF-268 CNS; more than 66.3 µM in the assay with HCT-116 colon; more than 24.3 µM in the assay with UACC-257 melanoma; 35.1 µM in the assay with SNB-75 CNS. Moreover, the TGI with HOP-92 NSCLC was more than 100 µM; with SK-MEL-2 melanoma, more than 37.3 µM; in the assay with SK-OV-3 ovarian, more than 69.8 µM; with T-47D breast, more than 100 µM.
